According to EP0505841A2, “Analgesic composition containing beta-carotene” (MILES INC., priority 1991, dated 1992):
Entries after “also recorded” stand apart in the source; their conditions may differ.

Assays:
[1] = test system: Phenylquinone (PQ) Writhing; assay: Phenylquinone (PQ) writhing; assay type: in vivo, mice; conditions: for effect on the analgesia (pain relief effects) of aspirin: interaction term p. <.001; for writhing response, means: two-vehicle combination set at zero; for P.Q. WRITHING (INH. %) ± SEM: mice
Procedure: The test sample is administered orally (mg/kg) to a group of 8 mice one hour before injection of PQ (2 mg/kg intraperitonilly). Greater than 50 percent (>50) inhibition of the number of writhes per group of animals observed during 5 to 10 minutes after PQ, relative to a vehicle treated group, indicates possible analgesic activity. [Irwin, Samuel, Psychopharmacologia, 13:22-257, 1968.] A test was conducted using alpha-tocopherol and aspirin. […] All dosing was done orally (PO). […] Again the writhing response was set at zero for the two-vehicle combination.

[2] = test system: paw edema; assay: Carrageenan paw edema, anti-inflammatory test; conditions: rats, p.o., 3 hrs after carrageenan
[3] = test system: Prostaglandin and hydroxyicosatetraenoic acid (HETE) production; conditions: bovine seminal vesicles and kidney; cited from earlier work

Cc1c(C)c2c(c(C)c1O)CCC(C)(CCCC(C)CCCC(C)CCCC(C)C)O2 (stereo not drawn) [Alpha-tocopherol, alpha-tocopherol]
effect on the analgesia (pain relief effects) of aspirin ([1]; PO): antagonizes the pain relief effects of aspirin; also recorded: antagonism to the analgesia of aspirin
effect on the analgesia (pain relief effects) of aspirin ([1]; PO, listed as Vitamin E): significant antagonistic effect
writhing response, means ([1]; aspirin Veh., Vitamin E 100 mg.): 1
writhing response, means ([1]; aspirin Veh., Vitamin E 300 mg.): 2
P.Q. WRITHING (INH. %) ± SEM ([1]; PO, A₀ aspirin vehicle + E₁ alpha-tocopherol 300mg/kg): 3 ± 1%
P.Q. WRITHING (INH. %) ± SEM ([1]; PO, A₀ aspirin vehicle + E₂ alpha-tocopherol 100mg/kg): 1 ± 1%
P.Q. WRITHING (INH. %) ± SEM ([1]; PO, A₀ aspirin vehicle + E₃ alpha-tocopherol 30 mg/kg): 3 ± 1%
P.Q. WRITHING (INH. %) ± SEM ([1]; PO, A₀ aspirin vehicle + E₅ alpha-tocopherol 3 mg/kg): 3 ± 1%

CC(=O)Oc1ccccc1C(=O)O [Aspirin, aspirin]
ED20 ([1]; Mus musculus, PO, also used as dose level A₁, read-out: ED₂₀): 8.3 mg/kg
ED50 ([1]; Mus musculus, PO, also used as dose level A₂, read-out: ED₅₀): 25 mg/kg
ED80 ([1]; Mus musculus, PO, also used as dose level A₃, read-out: ED₈₀): 75 mg/kg
writhing response, means ([1]; aspirin ED20, Vitamin E Vehicle): 20
writhing response, means ([1]; aspirin ED50, Vitamin E Vehicle): 48
writhing response, means ([1]; aspirin ED80, Vitamin E Vehicle): 85
P.Q. WRITHING (INH. %) ± SEM ([1]; PO, A₁ aspirin 8.3 mg/kg + E₀ alpha-tocopherol vehicle): 20 ± 1%
P.Q. WRITHING (INH. %) ± SEM ([1]; PO, A₂ aspirin 25 mg/kg + E₀ alpha-tocopherol vehicle): 48 ± 2%
P.Q. WRITHING (INH. %) ± SEM ([1]; PO, A₃ aspirin 75 mg/kg + E₀ alpha-tocopherol vehicle): 85 ± 2%
Mean Paw Volumes ([2]; A1 aspirin 10 mg/kg + B0 ß-carotene vehicle): 79.1 ml. x 10^-2
Mean Paw Volumes ([2]; A2 aspirin 30 mg/kg + B0 ß-carotene vehicle): 73.9 ml. x 10^-2
Mean Paw Volumes ([2]; A3 aspirin 100 mg/kg + B0 ß-carotene vehicle): 58.9 ml. x 10^-2
Mean Paw Volumes ([2]; A4 aspirin 300 mg/kg + B0 ß-carotene vehicle): 38.8 ml. x 10^-2

CC1=C(/C=C/C(C)=C/C=C/C(C)=C/CO)C(C)(C)CCC1 [retinol]
Prostaglandin and hydroxyicosatetraenoic acid (HETE) production [3]: considerably inhibited

CC1=C(/C=C/C(C)=C/C=C/C(C)=C/C=C/C=C(C)/C=C/C=C(C)/C=C/C2=C(C)CCCC2(C)C)C(C)(C)CCC1 [β-Carotene, ß-carotene]
Prostaglandin and hydroxyicosatetraenoic acid (HETE) production [3]: considerably inhibited
Mean Paw Volumes ([2]; A0 aspirin vehicle + B1 ß-carotene 10 mg/kg): 86.0(.24) ml. x 10^-2
Mean Paw Volumes ([2]; A0 aspirin vehicle + B2 ß-carotene 30 mg/kg): 86.5(.14) ml. x 10^-2
Mean Paw Volumes ([2]; A0 aspirin vehicle + B3 ß-carotene 100 mg/kg): 81.6(.16) ml. x 10^-2
Mean Paw Volumes ([2]; A0 aspirin vehicle + B4 ß-carotene 300 mg/kg): 81.9(.21) ml. x 10^-2
